Laboratory results published in US9220767B2 (priority 2008, dated 2015).

Legend:
IgG1, IgG2a and IgG2b = test: Detection of IgG1, IgG2a and IgG2b in mouse sera by ELISA after intramuscular Agrippal and adjuvants; type: in vivo, mice; conditions: for level of IgG1 in sera / level of IgG2a in sera / level of IgG2b in sera: 1, 4 or 8.9 μg Agrippal alone or + 1 μg adjuvant, ELISA; for level of IgG1 when the dose of Agrippal combined to the adjuvant was increased / level of IgG2a when the dose of Agrippal combined to the adjuvant was increased / level of IgG2b when the dose of Agrippal combined to the adjuvant was increased: Agrippal 1 to 8.9 μg + 1 μg adjuvant
Method: Mice were injected at day 0 and day 21 with: • PBS, • 1 μg Agrippal® alone, • 1 μg Agrippal®+1 μg PBS-57 in pegylated form or liposome formulation (PBS-57/S or PBS-57/L) or PBS-14 liposome formulation (PBS-14/L), • 4 μg Agrippal® alone, • 4 μg Agrippal®+1 μg PBS-57/S or PBS-57/L or PBS-14/L, • 8.9 μg Agrippal® alone, or • 8.9 μg Agrippal®+1 μg PBS-57/S or PBS-57/L or PBS-14/L.
Sera were collected at day 42 and the IgG1, IgG2a and IgG2b content of the sera was analysed by ELISA.
Mice were injected at day 0 with: • PBS, • 1 μg Agrippal® alone, • 1 μg Agrippal®+1 μg PBS-57 in pegylated form or liposome formulation (PBS-57/S or PBS-57/L) • 4 μg Agrippal® alone, • 4 μg Agrippal®+1 μg PBS-57/S or PBS-57/L, • 8.9 μg Agrippal® alone, or • 8.9 μg Agrippal®+1 μg PBS-57/S or PBS-57/L.
Sera were collected at day 21 and the IgG1 and IgG2b content of the sera was analysed by ELISA.

[1] = system: three prototypical strains (A/Brisbane/10/2007, A/Brisbane/59/2007, and B/Florida/4/2006); test: Indirect hemagglutination assay (IHA) of immunised mice sera, statements not split by strain; type: in vivo; conditions: for IHA titers induced by Fluarix vaccination: mice immunised twice with Fluarix + adjuvant, vs Fluarix alone (Example 3)
Method: (§1) Mice were injected by intramuscular route at day 0 and day 21 with: • NaCl, • 1 μg Fluarix® alone, • 1 μg Fluarix®+1 μg PBS-57/S, or • 1 μg Fluarix®+1 μg PBS-57/L.
(§2) Sera were collected at day 42 and reactivity with the three prototypical strains (A/Brisbane/10/2007, A/Brisbane/59/2007, and B/Florida/4/2006) of Fluarix® vaccine was assayed by measuring IHA titers for each of these strains (see FIG. 7).
(§3) Mice were injected by intramuscular route at day 0 and day 21 with: • nothing (naïve mice), • PBS, • 4 μg Agrippal® alone, • 8.9 μg Agrippal® alone, • 4 μg Agrippal®+1 μg PBS-57 in liposome formulation (PBS-57/L) or PBS-14 liposome formulation (PBS-14/L), or • 8.9 μg Agrippal®+1 μg PBS-57 in PEGylated form (PBS-57/S) or PBS-57/L or PBS-14/L.
(§4) Sera were collected at day 42 and reactivity with the three prototypical strains (H3 A/Brisbane/10/2007, H1 A/Brisbane/59/2007, and B/Florida/4/2006) of Agrippal® vaccine was assayed by measuring IHA titers for each of these strains (see FIG. 8).
Mice were injected by intramuscular route at day 0 with: • NaCl, • PBS-57/D alone, • PBS-57/L alone, • PBS-57/S alone, • 4 μg Agrippal® alone, • 8.9 μg Agrippal® alone, • 4 μg Agrippal®+1 μg PBS-57 in liposome formulation (PBS-57/L) or in pegylated form (PBS-57/S) or in DMSO (PBS-57/D), or • 8.9 μg Agrippal®+1 μg PBS-57/L or PBS-57/S or PBS-57/D.
Sera were collected at day 21 and reactivity with the three prototypical strains (H3 A/Brisbane/10/2007, H1 A/Brisbane/59/2007, and B/Florida/4/2006) of Agrippal® vaccine was assayed by measuring IHA titers for each of these strains (see FIG. 9).
Mice were injected by intramuscular route at day 0 with: • PBS, • 1 μg PBS-57 in DMSO (PBS-57/D) alone • 1 μg PBS-57 in PEGylated form (PBS-57/S) alone, • 1 μg PBS-57 in liposome formulation (PBS-57/L) alone, • 4 μg Agrippal® alone, • 8.9 μg Agrippal® alone, • 4 μg Agrippal®+1 μg PBS-57/D, PBS-57/S or PBS-57/L, or • 8.9 μg Agrippal®+1 μg PBS-57/D, PBS-57/S or PBS-57/L.
(§5) Agrippal® vaccine comprises a mixture of A/Brisbane/10/2007-like, A/Brisbane/59/2007-like, and B/Florida/4/2006-like strains.
Sera were collected at day 21 and reactivity with the three prototypical strains (H3 A/Brisbane/10/2007, H1 A/Brisbane/59/2007, and B/Florida/4/2006) of Agrippal® vaccine was assayed by measuring IHA titers for each of these strains (see FIG. 20).

H3 A/Brisbane/10/2007 = test: Indirect hemagglutination assay (IHA) of immunised mice sera, strain A/Brisbane/10/2007; type: in vivo; conditions: 1 μg Fluarix + 1 μg adjuvant i.m. day 0 and 21; sera day 42; vs Fluarix alone
Method: as §1
(§6) Fluarix® vaccine comprises a mixture of A/Brisbane/10/2007-like, A/Brisbane/59/2007-like, and B/Florida/4/2006-like strains.
as §2, §3, §5
Sera were collected at day 42 and reactivity with the three prototypical strains (H3 A/Brisbane/10/2007, H1 A/Brisbane/59/2007, and B/Florida/4/2006) of Agrippal® vaccine was assayed by measuring IHA titers for each of these strains (see FIG. 8). […]

H1 A/Brisbane/59/2007 = test: Indirect hemagglutination assay (IHA) of immunised mice sera, strain A/Brisbane/59/2007; type: in vivo; conditions: 1 μg Fluarix + 1 μg adjuvant i.m. day 0 and 21; sera day 42; vs Fluarix alone
Method: as §1, §6, §2, §3, §5, §4

B/Florida/4/2006 = test: Indirect hemagglutination assay (IHA) of immunised mice sera, strain B/Florida/4/2006; type: in vivo; conditions: 1 μg Fluarix + 1 μg adjuvant i.m. day 0 and 21; sera day 42; vs Fluarix alone
Method: as §1, §6, §2, §3, §5, §4

[2] = system: iNKT (Vβ11/Vα24+ cells) from adults PBMC; test: In vitro iNKT activation, adult PBMC; type: cell-based; conditions: 7 days culture with IL-2, 10 or 100 ng/ml, compared to 100 ng α-GalCer
Method: (§7) Adults PBMC and cord blood mononuclear cells (CBMC) were either non stimulated, or cultured in vitro with IL-2 alone or IL-2 combined with 100 ng α-GalCer or PBS-57/D or PBS-57/L (at 10 ng/ml or 100 ng/ml).
(§8) After 7 days of culture, activation of iNKT was determined by assessing the percentage of Vβ11/Vα24^+ cells amplified from PBMC or CBMC (FIGS. 13 and 14).

[3] = system: iNKT (Vβ11/Vα24+ cells) from cord blood mononuclear cells (CBMC); test: In vitro iNKT activation, cord blood mononuclear cells; type: cell-based; conditions: 7 days culture with IL-2, 10 or 100 ng/ml, compared to 100 ng α-GalCer
Method: as §7, §8

[4] = mice injected day 0 and day 21, sera day 42
[5] = two injections (day 0, 21), sera day 42
[6] = mice immunised twice (day 0, 21) with Agrippal + 1 μg adjuvant, sera day 42 (Example 4)
[7] = single injection day 0 of Agrippal + 1 μg adjuvant, sera day 21 (Example 5)
[8] = single injection day 0, sera day 21

| SMILES | level of IgG1 in sera (IgG1, IgG2a and IgG2b; [4]) | level of IgG2a in sera (IgG1, IgG2a and IgG2b; [4]) | level of IgG2b in sera (IgG1, IgG2a and IgG2b; [4]) | level of IgG1 when the dose of Agrippal combined to the adjuvant was increased (IgG1, IgG2a and IgG2b; [5]) | level of IgG2a when the dose of Agrippal combined to the adjuvant was increased (IgG1, IgG2a and IgG2b; [5]) | level of IgG2b when the dose of Agrippal combined to the adjuvant was increased (IgG1, IgG2a and IgG2b; [5]) | IHA titers as compared with the Agrippal vaccine alone [1, 6] | IHA titers induced by Fluarix vaccination [1] | IHA titers as compared with the Agrippal vaccine alone [1, 7] | level of IgG1 in sera (IgG1, IgG2a and IgG2b; [8]) | level of IgG2b in sera (IgG1, IgG2a and IgG2b; [8]) | level of IgG1 when the dose of Agrippal combined to the adjuvant was increased (IgG1, IgG2a and IgG2b; [8]) | level of IgG2b when the dose of Agrippal combined to the adjuvant was increased (IgG1, IgG2a and IgG2b; [8]) | IHA titers induced by Fluarix vaccination against A/Brisbane/10/2007 (H3 A/Brisbane/10/2007) | IHA titers induced by Fluarix vaccination against A/Brisbane/59/2007 (H1 A/Brisbane/59/2007) | IHA titers induced by Fluarix vaccination against B/Florida/4/2006 (B/Florida/4/2006) | IHA titers as compared with the Agrippal vaccine alone ([1]; single injection day 0 of 4 or 8.9 μg Agrippal + 1 μg adjuvant, sera day 21 (Example 12)) | activation of iNKT (percentage of Vβ11/Vα24+ cells amplified) [2] | activation of iNKT (percentage of Vβ11/Vα24+ cells amplified) [3] |
| --- | --- | --- | --- | --- | --- | --- | --- | --- | --- | --- | --- | --- | --- | --- | --- | --- | --- | --- | --- |
| CCCCCCCCCCCCCCCCCCCCCCCCCC(=O)N[C@@H](COC1OC(CNC(C)=O)C(O)C(O)C1O)[C@H](O)[C@H](O)CCCCCCCCCCCCCC (stereo partly shown) [PBS-14] | increases | increases | increases | not significantly further increased | not significantly further increased | not significantly further increased | increased IHA titers | same results | increased IHA titers | – | – | – | – | – | – | – | – | – | – |
| CCCCCCCC/C=C\CCCCCCCCCCCCCC(=O)N[C@@H](COC1OC(CNC(C)=O)C(O)C(O)C1O)[C@H](O)[C@H](O)CCCCCCCCCCCCCC (stereo partly shown) [PBS-57] | increases | increases | increases | not significantly further increased | not significantly further increased | not significantly further increased | increased IHA titers | – | increased IHA titers | increases | increases | not significantly further increased | not significantly further increased | significantly enhanced | enhanced but to a less significant level | significantly enhanced | increased IHA titers | stronger activation of iNKT compared to α-GalCer | stronger activation of iNKT compared to α-GalCer |
| CCCCCCCCCCCCCCCCCCCCCCCC(=O)N[C@@H](COC1OC(CNC(C)=O)C(O)C(O)C1O)[C@H](O)[C@H](O)CCCCCCCCCCCCCC (stereo partly shown) [PBS-96] | – | – | – | – | – | – | – | same results | – | – | – | – | – | – | – | – | – | – | – |
